SMILES strings stand for the structures.

The target of the assay is recombinant human SAE enzyme (Homo sapiens (Human), UniProt Q9UBT2). Description: SAE HTRF enzyme assay. The conditions noted are these: for Percent Inhibition: Concentration 0.111 μM; for IC50: class symbols A/B/C. The class given is biochemical. The protocol: Example 215: SAE HTRF enzyme assay
The SAE enzymatic reaction totals 50 μl and contains 50 mM HEPES Hemisodium (pH 7.5), 0.05% BSA, 5 mM MgCl2, 0.5 μM ATP, 250 μM GSH, 0.01 μM Ubc9-GST, 0.125 μM Sumo-Flag and 0.11 nM recombinant human SAE enzyme. The enzymatic reaction mixture, with and without inhibitor, Is incubated at 24° C. for 105 min in a 384-well plate before termination with […] of Stop/Detection buffer (0.1M HEPES Hemisodium pH 7.5, 0.05% Tween20, 20 mM EDTA, 410 mM KF, 0.53 nM Europium-Cryptate labeled monoclonal anti-Flag M2 Antibody (CisBio International) and 8.125 μg/ml PHYCOLINK goat anti-GST allophycocyanin (XL-APC) antibody (Prozyme)). After incubation for 2 hours at 24° C., quantification of FRET is performed on the Pherostar™ (BMG Labtech). Percentage inhibition values at a single concentration or enzyme inhibition (IC50) values are determined from those curves. One skilled in the art will appreciate that the values generated either as percentage inhibition at a single concentration or IC50 values are subject to experimental variation.
In general terms: Time-resolved FRET reads energy transfer from a long-lived donor to a nearby acceptor.

recombinant human SAE enzyme, sequence (Q9UBT2 whole entry): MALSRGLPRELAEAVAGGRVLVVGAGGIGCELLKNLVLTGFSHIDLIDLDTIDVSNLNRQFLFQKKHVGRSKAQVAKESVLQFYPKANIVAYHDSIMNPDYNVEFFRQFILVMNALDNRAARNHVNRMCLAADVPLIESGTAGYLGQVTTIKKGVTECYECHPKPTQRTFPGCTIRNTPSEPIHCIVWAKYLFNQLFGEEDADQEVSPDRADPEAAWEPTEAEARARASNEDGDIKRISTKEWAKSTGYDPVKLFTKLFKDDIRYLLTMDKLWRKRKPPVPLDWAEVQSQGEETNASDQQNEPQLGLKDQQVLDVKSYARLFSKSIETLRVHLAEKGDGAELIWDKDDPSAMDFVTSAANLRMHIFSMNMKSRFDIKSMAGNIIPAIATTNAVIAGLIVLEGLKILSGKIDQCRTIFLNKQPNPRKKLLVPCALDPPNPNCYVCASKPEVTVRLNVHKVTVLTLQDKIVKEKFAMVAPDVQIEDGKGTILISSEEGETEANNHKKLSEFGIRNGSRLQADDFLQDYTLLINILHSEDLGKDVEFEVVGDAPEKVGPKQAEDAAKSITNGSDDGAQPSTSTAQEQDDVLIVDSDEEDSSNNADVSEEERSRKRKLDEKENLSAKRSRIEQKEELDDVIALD
recombinant human SAE enzyme, sequence (Q9UBE0 whole entry partner): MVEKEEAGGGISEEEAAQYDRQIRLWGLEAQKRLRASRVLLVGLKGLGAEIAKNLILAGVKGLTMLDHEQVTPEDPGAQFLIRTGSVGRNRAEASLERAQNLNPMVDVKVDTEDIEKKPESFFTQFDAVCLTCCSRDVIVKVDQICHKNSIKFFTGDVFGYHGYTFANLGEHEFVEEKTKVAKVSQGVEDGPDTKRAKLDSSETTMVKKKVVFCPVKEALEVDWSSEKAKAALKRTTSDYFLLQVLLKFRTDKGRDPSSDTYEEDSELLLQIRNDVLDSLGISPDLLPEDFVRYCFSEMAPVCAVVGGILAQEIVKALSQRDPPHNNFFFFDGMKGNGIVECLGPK

Consider `C[C@](O)(c1csc(C(=O)c2cncnc2N[C@@H]2C[C@H](COS(N)(=O)=O)[C@@H](O)[C@H]2O)c1)c1cccc(Br)n1` (mixture of isomers) [I-1, [(1R,2R,3S,4R)-4-{[5-({4-[(1S)-1-(6-bromopyridin-2-yl)-1-hydroxyethyl]-2-thienyl}carbonyl)pyrimidin-4-yl]amino}-2,3-dihydroxycyclopentyl]methyl sulfamate and [(1R,2R,3S,4R)-4-({[5-({4-[(1R)-1-(6-bromopyridin-2-yl)-1-hydroxyethyl]-2-thienyl}carbonyl)pyrimidin-4-yl]amino}-2,3-dihydroxycyclopentyl]methyl sulfamate], for which the “Percent Inhibition” value is 99 and the IC50 was under 10 nM.
For `C[C@@](O)(c1cccc(Br)c1)c1csc(C(=O)c2cncnc2N[C@@H]2C[C@H](COS(N)(=O)=O)[C@@H](O)C2)c1.C[C@](O)(c1cccc(Br)c1)c1csc(C(=O)c2cncnc2N[C@@H]2C[C@H](COS(N)(=O)=O)[C@@H](O)C2)c1` (mixture of isomers) [I-3, [(1R,2S,4R)-4-{[5-({4-[(1S)-1-(3-Bromophenyl)-1-hydroxyethyl]-2-thienyl}carbonyl)pyrimidin-4-yl]amino}-2-hydroxycyclopentyl]methyl sulfamate and [(1R,2S,4R)-4-{[5-({4-[(1R)-1-(3-Bromophenyl)-1-hydroxyethyl]-2-thienyl}carbonyl)pyrimidin-4-yl]amino}-2-hydroxycyclopentyl]methyl sulfamate] the same measures were 100 and under 10 nM.
With `NS(=O)(=O)OC[C@H]1C[C@@H](Nc2ncncc2C(=O)c2cc([C@H](O)c3cccc(Cl)c3)cs2)C[C@@H]1O` (mixture of isomers) [I-4, [(1R,2S,4R)-4-{[5-({4-[(R)-(3-chlorophenyl)(hydroxy)methyl]-2-thienyl}carbonyl)pyrimidin-4-yl]amino}-2-hydroxycyclopentyl]methyl sulfamate and [(1R,2S,4R)-4-{[5-({4-[(S)-(3-chlorophenyl)(hydroxy)methyl]-2-thienyl}carbonyl)pyrimidin-4-yl]amino}-2-hydroxycyclopentyl]methyl sulfamate], the “Percent Inhibition” value came out at 99 and the IC50 is under 10 nM.
For `CC(O)(c1cccc(Cl)c1)c1csc(C(=O)c2cncnc2NC2CC(O)C(COS(N)(=O)=O)C2)c1` (mixture of isomers) [I-5, [(1R,2S,4R)-4-{[5-({4-[(1R)-1-(3-chlorophenyl)-1-hydroxyethyl]-2-thienyl}carbonyl)pyrimidin-4-yl]amino}-2-hydroxycyclopentyl]methyl sulfamate and [(1R,2S,4R)-4-{[5-({4-[(1S)-1-(3-chlorophenyl)-1-hydroxyethyl]-2-thienyl}carbonyl)pyrimidin-4-yl]amino}-2-hydroxycyclopentyl]methyl sulfamate] the same measures were 99 and under 10 nM.
For the compound `Cc1sc(C(=O)c2cncnc2NC2CC(O)C(COS(N)(=O)=O)C2)cc1C(N)c1cccc(Cl)c1` (mixture of isomers) [I-6, [(1R,2S,4R)-4-{[5-({4-[(R)-amino(3-chlorophenyl)methyl]-5-methyl-2-thienyl}carbonyl)pyrimidin-4-yl]amino}-2-hydroxycyclopentyl]methyl sulfamate and [(1R,2S,4R)-4-{[5-({4-[(S)-amino(3-chlorophenyl)methyl]-5-methyl-2-thienyl}carbonyl)pyrimidin-4-yl]amino}-2-hydroxycyclopentyl]methyl sulfamate], the “Percent Inhibition” value is on record as 98 and the IC50 was under 10 nM.
The like results for `Cc1sc(C(=O)c2cncnc2NC2CC(O)C(COS(N)(=O)=O)C2)cc1C(O)c1cccc(Cl)c1` (mixture of isomers) [I-11, [(1R,2S,4R)-4-{[5-({4-[(R)-(3-chlorophenyl)(hydroxy)methyl]-5-methyl-2-thienyl}carbonyl)pyrimidin-4-yl]amino}-2-hydroxycyclopentyl]methyl sulfamate and [(1R,2S,4R)-4-{[5-({4-[(S)-(3-chlorophenyl)(hydroxy)methyl]-5-methyl-2-thienyl}carbonyl)pyrimidin-4-yl]amino}-2-hydroxycyclopentyl]methyl sulfamate] were, in that order, 99 and under 10 nM.
For `CC(N)(c1cccc(Cl)c1)c1csc(C(=O)c2cncnc2NC2CC(O)C(COS(N)(=O)=O)C2)c1` (mixture of isomers) [I-12, [(1R,2S,4R)-4-{[5-({4-[(1S)-1-amino-1-(3-chlorophenyl)ethyl]-2-thienyl}carbonyl)pyrimidin-4-yl]amino}-2-hydroxycyclopentyl]methyl sulfamate and [(1R,2S,4R)-4-{[5-({4-[(1R)-1-amino-1-(3-chlorophenyl)ethyl]-2-thienyl}carbonyl)pyrimidin-4-yl]amino}-2-hydroxycyclopentyl]methyl sulfamate] the same measures were 99 and under 10 nM.
For `NS(=O)(=O)OCC1CC(Nc2ncncc2C(=O)c2cc(C(O)c3cccc(Cl)c3)c(CO)s2)CC1O` (mixture of isomers) [I-13, [(1R,2S,4R)-4-{[5-({4-[(R)-(3-chlorophenyl)(hydroxy)methyl]-5-(hydroxymethyl)-2-thienyl}carbonyl)pyrimidin-4-yl]amino}-2-hydroxycyclopentyl]methyl sulfamate and [(1R,2S,4R)-4-{[5-({4-[(S)-(3-chlorophenyl)(hydroxy)methyl]-5-(hydroxymethyl)-2-thienyl}carbonyl)pyrimidin-4-yl]amino}-2-hydroxycyclopentyl]methyl sulfamate] the same measures were 100 and under 10 nM.
For the compound `NC(c1cccc(Cl)c1)c1cc(C(=O)c2cncnc2NC2CC(O)C(COS(N)(=O)=O)C2)sc1Cl` (mixture of isomers) [I-15, [(1R,2S,4R)-4-{[5-({4-[(R)-amino(3-chlorophenyl)methyl]-5-chloro-2-thienyl}carbonyl)pyrimidin-4-yl]amino}-2-hydroxycyclopentyl]methyl sulfamate and [(1R,2S,4R)-4-{[5-({4-[(S)-amino(3-chlorophenyl)methyl]-5-chloro-2-thienyl}carbonyl)pyrimidin-4-yl]amino}-2-hydroxycyclopentyl]methyl sulfamate], the “Percent Inhibition” value is 100 and the IC50 was under 10 nM.
`NS(=O)(=O)OCC1CC(Nc2ncncc2C(=O)c2cc(C(O)c3cccc(Br)c3)cs2)CC1O` (mixture of isomers) [I-17, [(1R,2S,4R)-4-{[5-({4-[(R)-(3-bromophenyl)(hydroxy)methyl]-2-thienyl}carbonyl)pyrimidin-4-yl]amino}-2-hydroxycyclopentyl]methyl sulfamate and [(1R,2S,4R)-4-{[5-({4-[(S)-(3-bromophenyl)(hydroxy)methyl]-2-thienyl}carbonyl)pyrimidin-4-yl]amino}-2-hydroxycyclopentyl]methyl sulfamate]: the “Percent Inhibition” value is reported as 99 and the concentration for half-maximal inhibition (IC50) is under 10 nM.

Broadly, the IC50 is the concentration that inhibits the measured activity by half.

The values are drawn from patent publication US10780090B2, “Heteroaryl compounds useful as inhibitors of SUMO activating enzyme” (Millennium Pharmaceuticals, Inc., priority 2014, dated 2020).
